Data set [1] concerns LXFE 397/26N17 (Non-Small Cell Lung Cancer, squamous cell carcinoma) xenograft.
Procedure: (§1) Animals and tumor implants were monitored daily until the maximum number of implants show clear signs of beginning solid tumor growth. […] The day of randomization was designated as day 0 of an experiment and was also the first day of dosing.
(§2) The tumor volume was determined by a two-dimensional measurement with callipers on the day of randomization (Day 0) and then once to twice weekly. Tumor volumes were calculated according to the following equation:
Tumor Vol[mm^3]=a[mm]×b^2[mm^2]×0.5
(§3) where “a” is the largest diameter and “b” is the perpendicular diameter of the tumor representing an idealized ellipsoid.
(§4) The relative volume of an individual tumor on day X (RTVx) was calculated by dividing the absolute volume [mm^3] of the respective tumor on day X (Tx) by the absolute volume of the same tumor on the day of randomization, i.e. on day 0 (T0), multiplied by 100, as shown by the following equation:
(§5) Group median of RTVs were calculated, considering only the tumors of animals that were alive on the day in question. Group median RTVs are used for drawing tumor growth curves.
Mice were either treated with Capecitabine at a dose of 100 mg/kg per orally (p.o.), with the plasma expander Voluven® 10% at a dose of 20 ml/kg bodyweight intravenously (i.v.), or with saline (20 ml/kg) i.v. at days 0, 4, 7, 11, 14, and 18. Tumor growth and body weight were determined over the course of the experiment. […]
For data set [2] the following is noted: LXFE 397 study, FIG. 2.
Procedure: (§6) Starting on day 0, animals were weighed once to twice a week. Relative body weights (RBW) of individual animals are calculated by dividing the individual absolute body weight on day X (BWx) by the individual body weight on the day of randomization, i.e. day 0 (BW0), multiplied by 100, as shown by the following equation:
(§7) Group median of relative body weights were determined, considering only the weights of animals that were alive on the day in question.
Tumor growth and body weight were determined over the course of the experiment.
In data set [3] the test system is HNXF 1842 (Head and Neck Cancer, squamous cell carcinoma) xenograft. As to the kind of experiment: Tumor growth of HNXF 1842 human tumor xenograft in NMRI nu/nu mice. In kind it is in vivo. Background: In xenograft studies the graft and the host belong to different species.
Procedure: as §1, §2
Tumor Vol[mm^3]=a[mm]×b^2[mm^2]×0.5
as §3, §4, §5
Mice were either treated with Paclitaxel at a dose of 10 mg/kg i.v., with a combination of Voluven® 10% (20 ml/kg i.v.) and Paclitaxel (10 mg/kg i.v.), or with saline (20 ml/kg) i.v. at days 0, 7, 14, and 21. Tumor growth and body weight were determined over the course of the experiment. […]
Data set [4] in a line: Relative body weight of mice bearing HNXF 1842 tumors. To be noted: HNXF 1842 study, FIG. 4. The class given is in vivo.
Procedure: as §6, §7
Mice were either treated with Paclitaxel at a dose of 10 mg/kg i.v., with a combination of Voluven® 10% (20 ml/kg i.v.) and Paclitaxel (10 mg/kg i.v.), or with saline (20 ml/kg) i.v. at days 0, 7, 14, and 21. Tumor growth and body weight were determined over the course of the experiment.
Data set [5] in a line: Relative body weight of mice bearing RXF 1220 tumors. In kind it is in vivo. To be noted: RXF 1220 study, FIG. 6.
Procedure: Starting on day 0, animals were weighed once to twice a week. Relative body weights (RBW) of individual animals are calculated by dividing the individual absolute body weight on day X (BWx) by the individual body weight on the day of randomization, i.e. day 0 (BW0), multiplied by 100, as shown by the following equation: Group median of relative body weights were determined, considering only the weights of animals that were alive on the day in question. Mice were either treated with Sunitinib at a dose of 40 mg/kg p.o., with a combination of Voluven® 10% (20 ml/kg i.v.) and Sunitinib (40 mg/kg p.o.), or with saline (20 ml/kg) i.v. at days 0-11. Tumor growth and body weight were determined over the course of the experiment.
Data set [6] has as its system RXF 1220 (renal cancer, hypernephroma) xenograft. To be noted: day 27; Sunitinib 40 mg/kg p.o., Voluven 10% 20 ml/kg i.v. 1 hour prior; days 0-11.
Procedure: as §1, §2
Tumor Vol[mm^3]=a[mm]×b^2[mm^2]×0.5
as §3, §4, §5
Mice were either treated with Sunitinib at a dose of 40 mg/kg p.o., with a combination of Voluven® 10% (20 ml/kg i.v.) and Sunitinib (40 mg/kg p.o.), or with saline (20 ml/kg) i.v. at days 0-11. Tumor growth and body weight were determined over the course of the experiment. […]

SMILES strings stand for the structures. Like-named read-outs stand apart in the source and are kept apart here.

On to `CCCCCOC(=O)Nc1nc(=O)n([C@@H]2O[C@H](C)[C@@H](O)[C@H]2O)cc1F` [Capecitabine], for which the “median relative tumor volume increase compared to day 0” value (“median relative tumor volume increase” for short) in data set [1] (day 14, Capecitabine 100 mg/kg p.o., Voluven 10% 20 ml/kg i.v. 1 hour prior, days 0, 4, 7, 11, 14, 18) was “approx. 15.2 fold”. For the same compound, the “inhibitory effect on tumor growth (in words)” value in data set [1] (over 14 days, combination compared with reference drug alone) was “moderately inhibited the tumor growth”. The “relative median body weight over time (in words)” value (from here on “relative median body weight”) in data set [2] was “did not increase the body weight as steadily as the other two”.

`CC(=O)O[C@H]1C(=O)[C@@]2(C)[C@H]([C@H](OC(=O)c3ccccc3)[C@]3(O)C[C@H](OC(=O)[C@H](O)[C@@H](NC(=O)c4ccccc4)c4ccccc4)C(C)=C1C3(C)C)[C@]1(OC(C)=O)CO[C@@H]1C[C@@H]2O` [Paclitaxel]: in data set [3] (day 18, Paclitaxel 10 mg/kg i.v., Voluven 10% 20 ml/kg i.v. 1 hour prior, days 0, 7, 14, 21), the “median relative tumor volume increase” value is “approx. 7.1 fold”. The “inhibitory effect on tumor growth (in words)” value in data set [3] (over 18 days, combination compared with reference drug alone) is “inhibited the tumor growth”. For the same compound, the “relative median body weight” value in data set [4] is given as “lowest increase”.

On to `CCN(CC)CCNC(=O)c1c(C)[nH]c(/C=C2\C(=O)Nc3ccc(F)cc32)c1C` [Sunitinib], for which, in data set [5], the “relative median body weight” value was “increased slightly over time”. Further, the “median relative tumor volume increase” value in data set [6] is on record as “approx. 8.5 fold”.

The record behind these values is patent publication US20130196949A1, “Hydroxyalkyl starch in combination with cytostatica for the treatment of cancers by reduction of tumor growth rates” (Fresenius Kabi Deutschland GmbH, priority 2012, published 2013).
